This note sets out measurements from ChEMBL document CHEMBL1201862, “PubChem BioAssay data set” (2004).

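Where inhibition never reached the appropriate level, the endpoint shown equals the highest concentration tested. Otherwise, values were interpolated linearly from a five-concentration, 48-hour dose response in 96-well plates. GI50 marks 50% less growth.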 Active and inactive are the calls of the source. Rule as the data show it: active = GI50 up to about 1.1 µM and inactive = higher. Where only a bound is given, the exact number is not on record here.

Test systems include BT-549; HCT-15; HL-60; K562; KM12; M14; MCF7; MDA-N; NCI-H522; NCI/ADR-RES; OVCAR-3; OVCAR-4; SF-539; SK-MEL-2; SNB-75; SW-620; T47D; UACC-62; UO-31; HCC 2998.
Assay in all cases: NCI anticancer screen, dose series, 48 h

Consider `COc1ccccc1N1C(=O)CS(=O)(=O)C1c1cccc(Oc2ccccc2)c1` (stereo not drawn), for which the GI50 in the assay on BT-549 is 16.9 µM (inactive); in the assay with HCT-15, 12.1 µM; in the assay on HL-60, 12.7 µM (inactive); in the assay with K562, 4.06 µM (inactive); in the assay with KM12, 15.7 µM (inactive); with M14, 16.6 µM (inactive). The GI50 was 6.21 µM (inactive) with MCF7; 4.3 µM (inactive) with MDA-N; 12.6 µM (inactive) in the assay on NCI-H522; 16.9 µM (inactive) with NCI/ADR-RES; 18.7 µM (inactive) with OVCAR-3; 15 µM (inactive) with OVCAR-4. For the same compound, the GI50 with SF-539 was 16 µM (inactive); in the assay on SK-MEL-2 it was 13 µM (inactive); in the assay on SNB-75, 20 µM (inactive); with SW-620 it was 19.4 µM (inactive); with T47D, 15.6 µM (inactive); in the assay with UACC-62 it was 12.1 µM (inactive). Further, in the assay on UO-31, the GI50 was 19.9 µM (inactive).

Turning to `CCOc1ccc(Nc2nc(N)nc(N)c2N)cc1`, the GI50 in the assay with BT-549 was 23.2 µM (inactive); with HCT-15, 38.9 µM; in the assay with HL-60, 39.1 µM (inactive); in the assay with K562 it was 13.6 µM (inactive); with KM12, 23.7 µM (inactive); in the assay with M14 it was 47.2 µM (inactive). Moreover, the GI50 in the assay on MCF7 was 18.8 µM (inactive); with MDA-N, 3.79 µM (inactive); in the assay on NCI-H522, 26 µM (inactive); in the assay with NCI/ADR-RES it was 37 µM (inactive); with OVCAR-3, 30.5 µM (inactive); in the assay on OVCAR-4, 18.4 µM (inactive). Further, the GI50 in the assay on SF-539 was 21.7 µM (inactive); in the assay with SK-MEL-2, 44.9 µM (inactive); in the assay on SNB-75, 20.6 µM (inactive); in the assay with SW-620 it was 33.1 µM (inactive); in the assay with T47D it was 21.4 µM (inactive); in the assay on UACC-62, 32.7 µM (inactive). Besides, the GI50 in the assay with UO-31 is 11 µM (inactive).

On to `CC(C)C(C(=O)O)N1C(=O)c2ccccc2C1=O` (stereo not drawn), for which the GI50 in the assay on BT-549 was > 100 µM (inactive); in the assay with HCC 2998 it was > 100 µM (inactive); with HCT-15 it was above 100 µM; in the assay on HL-60, > 100 µM (inactive); in the assay on K562, > 100 µM (inactive); with KM12 it was > 100 µM (inactive). For the same compound, the GI50 in the assay with M14, in the assay with MCF7, in the assay on MDA-N, in the assay with NCI-H522, in the assay on NCI/ADR-RES and with OVCAR-3 was > 100 µM (inactive) each time. For the same compound, the GI50 is > 100 µM (inactive) with OVCAR-4; 0.18 µM (active) in the assay with SK-MEL-2; > 100 µM (inactive) in the assay with SNB-75; > 100 µM (inactive) with SW-620; > 100 µM (inactive) with T47D; > 100 µM (inactive) in the assay on UACC-62.

Turning to `O=C1CC(C(CC(=O)c2ccccc2)c2ccccc2)C(=O)c2ccccc2N1` (stereo not drawn), the GI50 was 29.1 µM (inactive) in the assay on BT-549; 48.6 µM (inactive) in the assay on HCC 2998; 33.8 µM in the assay with HCT-15; 31.5 µM (inactive) in the assay on HL-60; 33.1 µM (inactive) in the assay on K562; 49.7 µM (inactive) in the assay with KM12. Moreover, the GI50 with M14 was 33.7 µM (inactive); with MCF7, 25.9 µM (inactive); with MDA-N it was 49.3 µM (inactive); in the assay on NCI/ADR-RES, 15.1 µM (inactive); with OVCAR-3, 28.4 µM (inactive); in the assay with SF-539, 38.3 µM (inactive). The GI50 in the assay with SK-MEL-2 is 16 µM (inactive); with SNB-75, 30.8 µM (inactive); in the assay with SW-620, 68.7 µM (inactive); in the assay on T47D, 20.7 µM (inactive); in the assay with UACC-62, 31.6 µM (inactive); with UO-31, 14.2 µM (inactive).

For the compound `CC(=O)c1sc2c(c1OC(=O)c1ccco1)c(=O)n(-c1ccccc1)c(=S)n2-c1ccccc1`, the GI50 in the assay on BT-549 is 18.1 µM (inactive); in the assay on HCT-15 it was 18.7 µM; in the assay with HL-60, 19.8 µM (inactive); in the assay with K562, 30.8 µM (inactive); in the assay on KM12, 21.1 µM (inactive); in the assay with M14, 8.11 µM (inactive). For the same compound, the GI50 was 22.6 µM (inactive) in the assay on MCF7; 24.8 µM (inactive) in the assay on MDA-N; 19.9 µM (inactive) in the assay with NCI-H522; 18.4 µM (inactive) in the assay on NCI/ADR-RES; 32.8 µM (inactive) with OVCAR-3; 28.9 µM (inactive) with OVCAR-4. Besides, the GI50 in the assay with SF-539 is 4.19 µM (inactive); in the assay with SK-MEL-2 it was 10.4 µM (inactive); in the assay with SNB-75, 21.8 µM (inactive); in the assay with SW-620, 26.6 µM (inactive); in the assay on T47D, 13 µM (inactive); in the assay on UACC-62, > 10 µM (inactive). Further, the GI50 with UO-31 was 20.3 µM (inactive).

On to `NCc1ccc(O)c(O)c1`, for which the GI50 in the assay on BT-549 is > 100 µM (inactive); in the assay on HCC 2998, > 100 µM (inactive); in the assay with HCT-15, above 100 µM; in the assay on HL-60, 12.5 µM (inactive); in the assay with K562, > 100 µM (inactive); in the assay on KM12, > 100 µM (inactive). Further, the GI50 is > 100 µM (inactive) with M14; > 100 µM (inactive) with MCF7; > 100 µM (inactive) in the assay with MDA-N; > 100 µM (inactive) in the assay on NCI/ADR-RES; 55.8 µM (inactive) in the assay on OVCAR-3; > 100 µM (inactive) in the assay on OVCAR-4. Besides, the GI50 in the assay with SF-539, in the assay with SK-MEL-2, in the assay on SNB-75, in the assay with SW-620, in the assay with T47D and in the assay on UACC-62 was > 100 µM (inactive) in each case. The GI50 in the assay on UO-31 was > 100 µM (inactive).

On to `Fc1cc(C2=Nn3c(CNc4ccc(Cl)cc4)nnc3S/C2=C\c2ccc(-c3ccc(Cl)cc3)o2)c(Cl)cc1Cl`, for which the GI50 with BT-549 is > 100 µM (inactive); in the assay with HCC 2998, 57.8 µM (inactive); with HCT-15, above 100 µM; in the assay on HL-60 it was > 100 µM (inactive); in the assay with K562 it was 11.9 µM (inactive); in the assay with KM12 it was > 100 µM (inactive). The GI50 with M14 is 53.3 µM (inactive); in the assay on MCF7, 38.8 µM (inactive); in the assay on MDA-N, > 100 µM (inactive); in the assay on NCI-H522 it was 38 µM (inactive); with NCI/ADR-RES, 6.53 µM (inactive); in the assay on OVCAR-3, 29.6 µM (inactive). For the same compound, the GI50 in the assay with SK-MEL-2 is 22.6 µM (inactive); with SW-620, > 100 µM (inactive); in the assay with T47D, 41.7 µM (inactive); with UACC-62 it was 13.6 µM (inactive); in the assay on UO-31, 11.8 µM (inactive).

`CC(=O)O[C@@H]1[C@@H](C)[C@]2(CC(c3ccoc3)OC2O)C2CCC3O[C@]3(C)[C@]2(C)[C@@H]1OC(C)=O` (stereo partly drawn): the GI50 in the assay on BT-549 was 25.2 µM (inactive); in the assay with HCT-15, 25.4 µM; in the assay with HL-60, 18 µM (inactive); in the assay on KM12 it was 23.8 µM (inactive); in the assay with M14, 82.6 µM (inactive); in the assay with MCF7, 41.5 µM (inactive). In addition, the GI50 in the assay with MDA-N is 42.1 µM (inactive); in the assay on NCI-H522, 27.9 µM (inactive); in the assay on NCI/ADR-RES, 40.2 µM (inactive); with OVCAR-3, 42 µM (inactive); in the assay with OVCAR-4, 12.5 µM (inactive); in the assay on SF-539, 22.7 µM (inactive). Further, the GI50 with SK-MEL-2 is 57.4 µM (inactive); with SNB-75 it was 46.7 µM (inactive); in the assay on SW-620 it was 36.4 µM (inactive); with T47D, 28.5 µM (inactive); in the assay on UACC-62, 20.4 µM (inactive); in the assay on UO-31, 37.2 µM (inactive).

As for `CC(=O)O[C@H]1CC[C@@]2(C)C(=CC[C@@H]3[C@@H]2CC[C@]2(C)C(=O)/C(=C\c4ccccc4)C[C@@H]32)C1`, the GI50 was > 100 µM (inactive) with BT-549; > 100 µM (inactive) in the assay on HCC 2998; above 100 µM in the assay with HCT-15; 54.7 µM (inactive) in the assay with K562; > 100 µM (inactive) in the assay with KM12; > 100 µM (inactive) in the assay with M14. In addition, the GI50 in the assay on MCF7 was > 100 µM (inactive); with MDA-N it was > 100 µM (inactive); with NCI-H522, 51.8 µM (inactive); in the assay with NCI/ADR-RES, > 100 µM (inactive); with OVCAR-3, 61.9 µM (inactive); in the assay on OVCAR-4 it was > 100 µM (inactive). Besides, the GI50 in the assay on SF-539, in the assay on SK-MEL-2, in the assay with SNB-75, with SW-620, in the assay on T47D and in the assay on UACC-62 was > 100 µM (inactive) throughout. Besides, in the assay with UO-31, the GI50 was > 100 µM (inactive).

Turning to `Cn1c2n/c(=N\c3ccc(Cl)cc3)[n+]3ccc4ccccc4c3c-2c([O-])n1-c1ccccc1`, the GI50 with BT-549 is > 100 µM (inactive); in the assay with HCC 2998, > 100 µM (inactive); in the assay with HCT-15 it was above 100 µM; with HL-60, > 100 µM (inactive); in the assay on K562, > 100 µM (inactive); in the assay on KM12, 42.9 µM (inactive). In addition, the GI50 with MCF7, in the assay on MDA-N, in the assay on NCI-H522, with NCI/ADR-RES, in the assay on OVCAR-3 and in the assay with OVCAR-4 was > 100 µM (inactive) each time. Further, the GI50 with SK-MEL-2, in the assay on SNB-75, in the assay with SW-620, in the assay with T47D, with UACC-62 and in the assay on UO-31 was > 100 µM (inactive) in each case.

Regarding `O=C1CC(=O)NC(NN2C(=O)CSC2c2ccc(Cl)cc2)=N1` (stereo not drawn), the GI50 was 33.8 µM (inactive) with BT-549; > 100 µM (inactive) in the assay with HCC 2998; above 100 µM in the assay with HCT-15; > 100 µM (inactive) in the assay with K562; 32.8 µM (inactive) with KM12; 55.6 µM (inactive) in the assay with M14. Further, the GI50 with MCF7 was 61.1 µM (inactive); with MDA-N it was 54.8 µM (inactive); in the assay with NCI-H522 it was > 100 µM (inactive); with NCI/ADR-RES, > 100 µM (inactive); in the assay with OVCAR-3, > 100 µM (inactive); in the assay on OVCAR-4, > 100 µM (inactive). Further, the GI50 with SF-539 was > 100 µM (inactive); with SK-MEL-2, > 100 µM (inactive); in the assay with SNB-75 it was > 100 µM (inactive); in the assay with SW-620, > 100 µM (inactive); in the assay with T47D, > 100 µM (inactive); in the assay on UACC-62, 21.8 µM (inactive). The GI50 in the assay on UO-31 is 21.3 µM (inactive).
